Measurements reported in patent publication US20090186844A1, “SiRNA DELIVERY INTO MAMMALIAN NERVE CELLS” (priority 2003, published 2009).
Counter-ions that a name gives are not always drawn.

How the values were obtained:
[1] = system: phrenic long-term facilitation (pLTF); assay: pLTF following intermittent hypoxia after intrathecal pretreatment; assay type: in vivo, rat; conditions: for effect on pLTF: one anesthetized rat each, intrathecal, 30 min prior to intermittent hypoxia, UO126 0.4 mg, KN62/KN93 2 mg
Protocol: The phrenic nerve was dissected, cut distally and desheathed. A laminectomy was performed over C2, and a silicone catheter (2 French, Access Technologies; Skokie, Ill.) connected to a 50 μl glass syringe (Hamilton; Reno Nev.) was advanced through a small hole in the dura at C2, such that the tip of the catheter lay over C4-C5. Following surgery, rats were converted to urethane anesthesia (1.6 g/kg, i.v.) and were paralyzed with pancuronium bromide (2.5 mg/kg). Supplemental doses of urethane were given as necessary. […] End-tidal PCO2 was monitored using a flow-through capnograph (Novametrix, Wallingford, Conn.). Periodically throughout the protocol, arterial blood was collected (0.3 ml) in a heparinized syringe to ensure that values remained constant (PaO2<45 mmHg in hypoxia, PaO2>120 mmHg in hyperoxia, PaCO2±1 mmHg from baseline value). Arterial PCO2 was corrected to the target range by adjusting ventilator frequency as necessary.
Ninety minutes after surgery, stable integrated phrenic discharge was established in hyperoxia (baseline; 50% O2, PaO2>120 mmHg), with CO2 added to the inspired gas so that PaCO2 was 2-3 mmHg above the CO2 apneic threshold (45 mmHg). In rats receiving intrathecal injections of vehicle or drug solutions, a bolus injection of 10-15 μl was given, and 30-35 min were allowed for drugs to penetrate the spinal cord prior to beginning protocols. Blood gases were measured before, during, and 15, 30 and 60 min post-intermittent hypoxia or hypercapnia, or at corresponding times in control rats (without hypoxia or hypercapnia).
Intrathecal injections of K252a were performed prior to intermittent hypoxia; K252a was prepared as described above. Intrathecal K252a (n=6) or vehicle (DMSO+artificial CSF; n=5) was delivered 30 min prior to intermittent hypoxia, and phrenic discharge was monitored continuously for 60 min post-intermittent hypoxia.

phrenic burst amplitude = assay type: in vivo, rat
Protocol: To determine if MAP kinase activation is sufficient to facilitate phrenic burst amplitude, one anesthetized rat was intrathecally injected with anisomycin ([…]; 20 mM), a protein synthesis inhibitor that also non-specifically activates MAP kinases.

phrenic motor output = assay: Phrenic activity following intrathecal BDNF injections; assay type: in vivo, rat; conditions: 90 min post-injection
Protocol: (§1) Surgical procedures have been described elsewhere (7). Rats were anesthetized with isoflurane (2.5% in 50% O2), vagotomized and pump-ventilated (Harvard Apparatus, South Natick, Mass.). The phrenic nerve was dissected, cut distally and desheathed. A laminectomy was performed over C2, and a silicone catheter (2 French, Access Technologies; Skokie, Ill.) connected to a 50 μl glass syringe (Hamilton; Reno Nev.) was advanced through a small hole in the dura at C2, such that the tip of the catheter lay over C4-C5. Following surgery, rats were converted to urethane anesthesia (1.6 g/kg, i.v.) and were paralyzed with pancuronium bromide (2.5 mg/kg). Supplemental doses of urethane were given as necessary. […] End-tidal PCO2 was monitored using a flow-through capnograph (Novametrix, Wallingford, Conn.). […]
Respiratory-related activity was recorded in the phrenic nerve with a bipolar silver electrode. […] Phrenic activity was digitized, recorded and analyzed using the WINDAQ data acquisition system (DATAQ Instruments, Akron, Ohio).
An intrathecal catheter was placed and 10-13 μl solutions of BDNF (0.1 μg, n=5) or vehicle (artificial CSF+0.1% BSA; n=5) were injected. To determine if intrathecal BDNF injections unintentionally spread beyond the spinal cord to cranial motor pools, the hypoglossal nerve was also dissected, desheathed and recorded. […]

TrkB receptor (rat) = TrkB receptor (rat) (UniProt Q63604); assay: cell-based or functional assay
phrenic LTF = assay: pLTF following sustained hypoxia after protein phosphatase inhibition; assay type: in vivo, rat; conditions: okadaic acid 0.15 mg; 20 mM intrathecally to C4 30 min prior to sustained hypoxia (25 min)
Protocol: Air, O2 and/or N2 were mixed to achieve the desired pattern of inspired oxygen concentration. […] Control groups receiving similar surgery or treatments, but not receiving hypoxia, […].
Accordingly, in one anesthetized rat, […] okadaic acid (0.15 mg; 20 mM), a protein phosphatase 1/2A (PP1 and PP2A) inhibitor, was delivered intrathecally to C4 30 min prior to sustained hypoxia (25 min). […] This finding has been successfully repeated in three additional rats.

[2] = system: BDNF protein concentration in ventral C3-C5; assay: Ventral C3-C5 BDNF protein concentration (ELISA) after intermittent hypoxia, intrathecal drug pretreatment; assay type: in vivo, rat; conditions: 60 min post-intermittent hypoxia, intrathecal methysergide 250 microgram/kg or emetine 1 μg/kg 30 min prior
Protocol: as §1
Ninety minutes after surgery, stable integrated phrenic discharge was established in hyperoxia (baseline; 50% O2, PaO2>120 mmHg), with CO2 added to the inspired gas so that PaCO2 was 2-3 mmHg above the CO2 apneic threshold (45 mmHg). […] Blood gases were measured before, during, and 15, 30 and 60 min post-intermittent hypoxia or hypercapnia, or at corresponding times in control rats (without hypoxia or hypercapnia). […]

[3] = system: hypoglossal nerve activity; assay: Hypoglossal nerve activity following intrathecal BDNF injections; assay type: in vivo, rat; conditions: intrathecal BDNF 0.1 μg; 90 min post-injection
Protocol: An intrathecal catheter was placed and 10-13 μl solutions of BDNF (0.1 μg, n=5) or vehicle (artificial CSF+0.1% BSA; n=5) were injected. To determine if intrathecal BDNF injections unintentionally spread beyond the spinal cord to cranial motor pools, the hypoglossal nerve was also dissected, desheathed and recorded. […] In another group of rats, two intrathecal catheters were placed over C4, and a bolus injection of the tyrosine kinase inhibitor K252a was given 10 min prior to BDNF injection (BDNF+K252a; BDNF=0.1 μg; K252a=0.15 microgram, n=3). Recombinant human BDNF (Promega Corporation, Madison, Wis.) was dissolved in artificial CSF+0.1% bovine serum albumin (BSA). K252a (Calbiochem; San Diego, Calif.) was initially dissolved in dimethylsulfoxide (DMSO; 100 μg K252a in 1.5 ml DMSO) and frozen in 200 μl aliquots. Prior to experimentation, 0.8 ml artificial CSF was added to a 200 μl aliquot of K252a/DMSO solution, of which 10-15 μl was delivered intrathecally (final concentration of K252a=0.13-0.2 μg; 28 μM). Vehicle delivery was as described above (DMSO+artificial CSF), except K252a was not added. At 30, 60 and 90 min post-injection, arterial blood gases were analyzed to ensure that PaO2 and PaCO2 levels were similar to pre-injection values.

TrkB receptor (rat), sequence (Q63604 32-821): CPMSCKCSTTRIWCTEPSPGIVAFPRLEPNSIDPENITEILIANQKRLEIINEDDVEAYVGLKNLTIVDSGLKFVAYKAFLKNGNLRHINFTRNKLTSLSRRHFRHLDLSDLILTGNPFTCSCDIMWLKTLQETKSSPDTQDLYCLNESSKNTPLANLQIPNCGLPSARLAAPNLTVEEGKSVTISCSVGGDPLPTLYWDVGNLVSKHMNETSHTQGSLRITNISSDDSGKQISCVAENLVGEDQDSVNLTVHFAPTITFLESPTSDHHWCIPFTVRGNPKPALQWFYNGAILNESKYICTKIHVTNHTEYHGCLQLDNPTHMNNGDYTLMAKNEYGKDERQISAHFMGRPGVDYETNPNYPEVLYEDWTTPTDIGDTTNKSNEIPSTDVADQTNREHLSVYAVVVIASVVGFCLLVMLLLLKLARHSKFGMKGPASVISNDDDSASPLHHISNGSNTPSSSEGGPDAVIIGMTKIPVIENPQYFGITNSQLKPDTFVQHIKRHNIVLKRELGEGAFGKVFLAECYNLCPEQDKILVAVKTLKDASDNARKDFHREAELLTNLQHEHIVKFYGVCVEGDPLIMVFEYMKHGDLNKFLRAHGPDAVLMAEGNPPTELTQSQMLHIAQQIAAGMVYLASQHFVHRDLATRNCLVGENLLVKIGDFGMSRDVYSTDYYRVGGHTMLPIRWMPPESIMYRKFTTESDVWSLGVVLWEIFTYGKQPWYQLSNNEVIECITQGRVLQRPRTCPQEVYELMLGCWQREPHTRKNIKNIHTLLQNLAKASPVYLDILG

For `N#CC(=C(/N)Sc1ccccc1N)/C(C#N)=C(/N)Sc1ccccc1N` [UO126], the “effect on pLTF” value [1] was “blocked pLTF” and the “effect of pretreatment on anisomycin-induced increase in phrenic amplitude” value (phrenic burst amplitude; UO126 0.4 mg, 100 mM pretreatment, n=1) was “prevented the effect”.

With `COC(=O)[C@@]1(O)C[C@H]2O[C@]1(C)n1c3ccccc3c3c4c(c5c6ccccc6n2c5c31)C(=O)NC4` [K252a] the “phrenic burst amplitude increase from baseline (pLTF)” value ([1]; 60 min post-intermittent hypoxia, intrathecal K252a 0.13-0.2 μg 30 min prior) was 25±6% and the “BDNF-induced phrenic facilitation after K252a pre-treatment, change from baseline” value (phrenic motor output; intrathecal K252a 10 min prior to BDNF 0.1 μg) was 9±10%.

For “Recombinant human BDNF (Promega Corporation) (from UniProt P23560 129-247) (ligand)”, the integrated phrenic discharge (percent change from baseline) 90 min after intrathecal BDNF injection in anesthetized rats (% above baseline) (TrkB receptor (rat)) was 125.

For `C=C1[C@@H](O)[C@@H]2O[C@]3(CC[C@H](/C=C/[C@@H](C)[C@@H]4CC(C)=C[C@@]5(O[C@H](C[C@@](C)(O)C(=O)O)CC[C@H]5O)O4)O3)CC[C@H]2O[C@@H]1[C@@H](O)C[C@H](C)[C@H]1O[C@@]2(CCCCO2)CC[C@H]1C` [okadaic acid], the “pLTF 60 min following sustained hypoxia” value (phrenic LTF) was “a modest pLTF was apparent”.

`CC[C@H]1CN2CCc3cc(OC)c(OC)cc3[C@@H]2C[C@@H]1C[C@H]1NCCc2cc(OC)c(OC)cc21` [emetine] was tested, and the “change in ventral cervical BDNF concentration from corresponding drug control” value [2] was 19±11%.

With `CC[C@@H](CO)NC(=O)[C@@H]1C=C2c3cccc4c3c(cn4C)C[C@H]2N(C)C1` [methysergide, methysergide maleate] the “change in ventral cervical BDNF concentration from corresponding drug control” value [2] was −10±8%.

`COc1ccc(S(=O)(=O)N(CCO)c2ccccc2CN(C)C/C=C/c2ccc(Cl)cc2)cc1` [KN93] was tested, and the “effect on pLTF” value [1] was “did not block pLTF”.

With `CN([C@@H](Cc1ccc(OS(=O)(=O)c2cccc3cnccc23)cc1)C(=O)N1CCN(c2ccccc2)CC1)S(=O)(=O)c1cccc2cnccc12` [KN62] the “effect on pLTF” value [1] was “did not block pLTF”.

In the case of `COc1ccc(C[C@H]2NC[C@H](O)[C@H]2OC(C)=O)cc1` [anisomycin], the “phrenic burst amplitude increase above pre-injection levels” value (phrenic burst amplitude; one anesthetized rat, intrathecal anisomycin 100 mg, 20 mM, thirty min post-injection) is reported as 60%.

B1: BDNF: Recombinant human BDNF (Promega), brain-derived neurotrophic factor (protein)
chain: HSDPARRGELSVCDSISEWVTAADKKTAVDMSGGTVTVLEKVPVSKGQLKQYFYETKCNPMGYTKEGCRGIDKRHWNSQCRTTQSYVRALTMDSKKRIGWRFIRIDTSCVCTLTIKRGR
In the case of B1, the “hypoglossal nerve activity, change from baseline” value [3] is reported as 30±17% and the “integrated phrenic discharge, change above baseline” value (phrenic motor output; intrathecal BDNF 0.1 μg) is reported as 125±25%.
